Consider eleven compounds from patent US8952033B2, “4-anilinofuro[2,3-b]quinoline derivatives, their preparation processes, and pharmaceutical compositions comprising the same” (Kaohsiung Medical University, priority 2011, dated 2015).

In brackets after ≈: the same amount, converted by molar mass. Like-named read-outs stand apart in the source and are kept apart here.

In general, GI50 refers to the concentration that inhibits growth by half.

Series [1] in a line: Determination of solubility in water. The settings on record: for Solubility in water: 25±0.1° C., stirred overnight, UV-VIS. The series is classed as physicochemical. The method, then: Determination of solubility in water was conducted substantially according to the method as described in Vougogiannopoulou, K. et al. (2008), J. Med. Chem., 51:6421-6431. An excess amount of the respective test compound was added into water, followed by sonication for 5 minutes. The resultant mixture was stirred at ambient temperature (25±0.1° C.) overnight. Centrifugation at 4000 rpm and 25° C. was conducted for 5 minutes. Absorbance of the sample of the respective test compound was measured at 315-420 nm using a UV-VIS spectrophotometer (JASCO UV-Visible V570). For each test compound, a standard curve was generated by plotting concentrations of standard solutions and the corresponding absorbances. The absorbance of the sample of each test compound was then converted to solubility in water (μg/mL) using the corresponding standard curve.

The subject of series [2] is MCF-7 (breast cancer cell). As to the kind of experiment: MTT antiproliferative assay (cell growth %, GI50), MCF-7. Set-up: Cell growth (%) MCF-7: unit of the concentration uncertain. The following applies: for SI MCF-7: GI50 MRC-5 / GI50 MCF-7; for activity at 4000 µg/mL / activity at 20000 µg/mL / GI50: Homo sapiens; for activity at 4000 µg/mL: 4 mg/ml; for activity at 4000 µg/mL / activity at 20000 µg/mL / Cell growth (%) MCF-7: 48 hours, MTT; for activity at 20000 µg/mL: 20 mg/ml. The class given is cell-based. The method, then: (§1) Antiproliferative activities of the compounds of this invention were evaluated substantially according to the method as described in Tseng, C. […] The cells were treated with the test compounds, i.e., the compounds of this invention (in dimethylsulfoxide (DMSO)), or DMSO for 48 hours.
(§2) Before and after the treatment with the test compounds or DMSO, 3-(4,5-dimethylthiazol-2-yl)-2,5-diphenyltetrazolium bromide (MTT, 2 mg/mL, 100 μL) was added to each of the cultures, followed by cultivation for 2 hours. The resultant formazan was dissolved by the addition of DMSO. Absorbance at 570 nm (OD570) was measured using a microtiter plate reader (Dynex MRX-II).
(§3) Determination of GI50 was conducted thrice for each test compound. GI50 is expressed as mean±SD.
In general terms: Tetrazolium assays rely on reduction of a dye to a coloured formazan, in cell work by metabolically active cells.

Series [3] concerns MRC-5 (human lung fibroblast cell). As to the kind of experiment: GI50 determination on normal cell line MRC-5. The series is classed as cell-based. As for the experimental part: as §1, §2, §3
Series [4] relates to SF-268 (central nervous system carcinoma cell). As to the kind of experiment: MTT antiproliferative assay (cell growth %, GI50), SF-268. Set-up: Cell growth (%) SF-268: unit of the concentration uncertain. The settings on record: for SI SF-268: GI50 MRC-5 / GI50 SF-268; for GI50: Homo sapiens; for Cell growth (%) SF-268: 48 hours, MTT. The class given is cell-based. As for the experimental part:
as §1, §2, §3

For series [5], the system named is NCI-H460 (non-small cell lung carcinoma cell). Description: MTT antiproliferative assay (cell growth %, GI50), NCI-H460. Also on record: Cell growth (%) NCI-H460: unit of the concentration uncertain. The series is classed as cell-based. The following applies: for SI NCI-H460: GI50 MRC-5 / GI50 NCI-H460; for activity at 4000 µg/mL / activity at 20000 µg/mL / GI50: Homo sapiens; for activity at 4000 µg/mL: 4 mg/ml; for activity at 4000 µg/mL / activity at 20000 µg/mL / Cell growth (%) NCI-H460: 48 hours, MTT; for activity at 20000 µg/mL: 20 mg/ml. As for the experimental part: as §1, §2, §3

Setting [6] is: MCF7, mean±SD, read-out: GI50 MCF-7.
The mark [7] stands for this setting: MRC5, normal cell line, mean±SD, read-out: GI50 MRC-5.
The mark [8] stands for this setting: SF-268, mean±SD, read-out: GI50 SF-268.
Where [9] appears, read: NCI-H460, mean±SD, read-out: GI50 NCI-H460.

On to `C/C(=N\OCCCN)c1ccc(Nc2c3ccccc3nc3occc23)cc1` [Compound 13c, (E)-1-(4-(furo[2,3-b]quinolin-4-ylamino)phenyl)ethanone O-3-aminopropyl oxime], for which the Solubility in water in series [1] was 58 µg/mL (≈ 155 µM). For the same compound, the “SI MCF-7” value in series [2] came out at 3.73. Further, the activity at 4000 µg/mL was determined as 52% in series [2] (MCF7) and 22% in series [5] (NCI-H460). Further, the figures for the activity at 20000 µg/mL in series [2] (MCF7) and in series [5] (NCI-H460) were -3% and -2%, respectively. Further, the GI50 is 11.52 ± 0.02 µM in series [2] (setting [6]), 43 ± 0.86 µM in series [3] (setting [7]), 7.53 ± 0.41 µM in series [4] (setting [8]) and 7.08 ± 0.67 µM in series [5] (setting [9]). Also, the “SI SF-268” value in series [4] is given as 5.71. The “SI NCI-H460” value in series [5] is on record as 6.07.
With `C/C(=N\OCCCN)c1ccc(Nc2c3ccccc3nc3occ(Cl)c23)cc1` [Compound 14c, (E)-1-(4-(3-Chlorofuro[2,3-b]quinolin-4-ylamino)phenyl)ethanone O-3-aminopropyl oxime], the Solubility in water in series [1] amounted to 36 µg/mL (≈ 88 µM). Also, the “SI MCF-7” value in series [2] is listed as 4.98. The activity at 4000 µg/mL in series [2] (MCF7) stood at 46%; in series [5] (NCI-H460), 28%. In addition, the activity at 20000 µg/mL in series [2] (MCF7) and in series [5] (NCI-H460) was 0% in each case. The concentration for 50% growth inhibition (GI50) came out at 9.46 ± 0.23 µM in series [2] (setting [6]), 47.1 ± 2.27 µM in series [3] (setting [7]), 32.5 ± 1.25 µM in series [4] (setting [8]) and 16.2 ± 0.36 µM in series [5] (setting [9]). In series [4], the “SI SF-268” value is given as 1.46. For the same compound, the “SI NCI-H460” value in series [5] amounted to 2.90.
`COc1ccc2c(Nc3ccc(/C(C)=N/OCCN)cc3)c3ccoc3nc2c1` [Compound 15a, (E)-1-(4-(7-Methoxyfuro[2,3-b]quinolin-4-ylamino)phenyl)ethanone O-2-aminoethyl oxime] came in with a Solubility in water in series [1] of 16 µg/mL (≈ 41 µM). The “SI MCF-7” value in series [2] was 1.24. Moreover, the activity at 4000 µg/mL is 71% in series [2] (MCF7) and 14% in series [5] (NCI-H460). Also, the activity at 20000 µg/mL in series [2] (MCF7) came to 8%; in series [5] (NCI-H460) it was 11%. Further, the GI50 in series [2] (setting [6]) amounted to 36.23 ± 0.05 µM; in series [3] (setting [7]) it was 45.11 ± 0.31 µM; in series [4] (setting [8]), 8.15 ± 0.44 µM; in series [5] (setting [9]), 3.96 ± 0.14 µM. Further, the “SI SF-268” value in series [4] is listed as 5.53. For the same compound, the “SI NCI-H460” value in series [5] was found to be 11.39.
For the compound `COc1ccc2c(Nc3ccc(/C(C)=N/OCCN)cc3)c3c(Cl)coc3nc2c1` [Compound 16a, (E)-1-(4-(3-Chloro-7-methoxyfuro[2,3-b]quinolin-4-ylamino)phenyl)ethanone O-2-aminoethyl oxime], the Solubility in water in series [1] was determined as 17 µg/mL (≈ 40 µM). The “SI MCF-7” value in series [2] amounted to 1.28. Also, the results for the activity at 4000 µg/mL in series [2] (MCF7) and in series [5] (NCI-H460) were 66% and 13%, respectively. For the same compound, the activity at 20000 µg/mL was -1% in series [2] (MCF7) and 3% in series [5] (NCI-H460). Also, the GI50 was determined as 36.93 ± 0.31 µM in series [2] (setting [6]), 47.46 ± 0.38 µM in series [3] (setting [7]), 7.48 ± 0.366 µM in series [4] (setting [8]) and 3.86 ± 0.13 µM in series [5] (setting [9]). For the same compound, in series [4], the “SI SF-268” value was found to be 6.34. Also, the “SI NCI-H460” value in series [5] turned out to be 12.30.
For the compound `COc1ccc2c(Nc3ccc(/C(C)=N/OCCN(C)C)cc3)c3c(Cl)coc3nc2c1` [Compound 16b, (E)-1-(4-(3-Chloro-7-methoxyfuro[2,3-b]quinolin-4-ylamino)phenyl)ethanone O-2-(dimethylamino) ethyl oxime], the “Cell growth (%) MCF-7” value in series [2] (4 (unit uncertain)) is given as 51%; in series [2] (20 (unit uncertain)), −2%. For the same compound, the figures for the “Cell growth (%) SF-268” value in series [4] (4 (unit uncertain)) and in series [4] (20 (unit uncertain)) were 102% and −1%, respectively. The figures for the “Cell growth (%) NCI-H460” value in series [5] (4 (unit uncertain)) and in series [5] (20 (unit uncertain)) were 74% and −1%, respectively.
In the case of `COc1ccc2c(Nc3ccc(/C(C)=N/OCCCN(C)C)cc3)c3c(Cl)coc3nc2c1` [Compound 16d, (E)-1-(4-(3-Chloro-7-methoxyfuro[2,3-b]quinolin-4-ylamino)phenyl)ethanone O-3-(dimethylamino) propyl oxime], the “Cell growth (%) MCF-7” value in series [2] (4 (unit uncertain)) is 66%; in series [2] (20 (unit uncertain)) it was 1%. Moreover, the results for the “Cell growth (%) SF-268” value in series [4] (4 (unit uncertain)) and in series [4] (20 (unit uncertain)) were 103% and 1%, respectively. For the same compound, the entries for the “Cell growth (%) NCI-H460” value in series [5] (4 (unit uncertain)) and in series [5] (20 (unit uncertain)) were 66% and 4%, respectively.
With `COc1ccc2c(Nc3ccc(/C(C)=N/OCCN4CCOCC4)cc3)c3c(Cl)coc3nc2c1` [Compound 16g, (E)-1-(4-(3-Chloro-7-methoxyfuro[2,3-b]quinolin-4-ylamino)phenyl)ethanone O-2-morpholinoethyl oxime], the results for the activity at 4000 µg/mL in series [2] (MCF7) and in series [5] (NCI-H460) were 85% and 97%, respectively. Also, the activity at 20000 µg/mL was determined as 37% in series [2] (MCF7) and 68% in series [5] (NCI-H460).
For the compound `COc1ccc2c(Nc3ccc(/C(C)=N/OCCCCN4CCOCC4)cc3)c3c(Cl)coc3nc2c1` [Compound 16h, (E)-1-(4-(3-Chloro-7-methoxyfuro[2,3-b]quinolin-4-ylamino)phenyl)ethanone O-4-morpholinobutyl oxime], in series [2] (MCF7), the activity at 4000 µg/mL turned out to be 96% and the activity at 20000 µg/mL was 5%. Further, in series [5] (NCI-H460), the activity at 4000 µg/mL is 87% and the activity at 20000 µg/mL amounted to 20%.
Take `C/C(=N\OCCN)c1ccc(Nc2c3ccccc3nc3occc23)cc1.Cl` [Hydrochloride salt of 13a, hydrochloride salt of (E)-1-(4-(furo[2,3-b]quinolin-4-ylamino)phenyl)ethanone O-2-aminoethyl oxime]: the Solubility in water in series [1] worked out at 1049 µg/mL. The “Solubility in water relative to compound 13a” value in series [1] (fold versus compound 13a) was “about 17 times”.
For `CC[C@@]1(O)C(=O)OCc2c1cc1n(c2=O)Cc2cc3ccccc3nc2-1` [camptothecin, reference compound], the “SI MCF-7” value in series [2] was 0.08. Further, the GI50 in series [2] (setting [6]) is 11.1 ± 0.61 µM; in series [3] (setting [7]) it was 0.89 ± 0.9 µM; in series [4] (setting [8]), 0.19 ± 0.006 µM; in series [5] (setting [9]), 0.03 ± 0.003 µM. The “SI SF-268” value in series [4] turned out to be 4.68. For the same compound, the “SI NCI-H460” value in series [5] is on record as 29.67.
With `COc1cccc2c1C(=O)c1c(O)c3c(c(O)c1C2=O)C[C@@](O)(C(C)=O)C[C@@H]3O[C@H]1C[C@H](N)[C@H](O)[C@H](C)O1` [daunorubicin, reference compound], in series [2], the “SI MCF-7” value stood at 0.17. In addition, the GI50 in series [2] (MCF7, read-out: GI50 MCF-7) came to 5.03 ± 0.05 µM; in series [3] (MRC5, read-out: GI50 MRC-5), 0.88 ± 0.11 µM; in series [4] (SF-268, read-out: GI50 SF-268), 0.6 ± 0.02 µM; in series [5] (NCI-H460, read-out: GI50 NCI-H460), 0.38 ± 0.04 µM. Further, the “SI SF-268” value in series [4] is on record as 1.47. Further, the “SI NCI-H460” value in series [5] worked out at 2.32.
